Results on one compound are retold here after patent US9726659B2, “CMPF as a biomarker for diabetes and associated methods” (The Governing Council of the University of Toronto, priority 2012, dated 2017).

This series deals with CD1 mice. In words: IP injection for 3 or 7 days: monitoring, fasting values, OGTT, ipITT. Conditions: for fasting blood glucose / fasting plasma insulin / glucose tolerance (OGTT) / insulin secretion during OGTT: 14 hr fast. The format is in vivo. Here is the method: CD1 mice were injected IP with either vehicle control (black) or CMPF (white). A) Plasma samples were taken at 10, 30, 60, 120 and 360 minutes post-IP injection and assayed for CMPF. […] Over the 3-day course of IP injections, mice were monitored for body weight (B), random-fed blood glucose (C) and plasma insulin (C). There was no difference in any of these parameters. Following 3 consecutive days of CMPF injections, mice were fasted for 14 hrs and OGTTs were performed.
CD1 mice were injected IP with either vehicle control (black) or CMPF (white). Over the 7-day course of IP injections, mice were monitored for body weight (A), and random-fed blood glucose (B) and plasma insulin (C). […] The lower body weights on day 8 are following a 14-hour fast, immediately prior to the OGTTs. Following 7 consecutive days of CMPF injections, mice were fasted for 14 hrs and OGTTs were performed. […] (n=8 per group, p<0.05).
To investigate the effect of CMPF on glucose homeostasis, (FIG. 8C). […] Therefore, elevated plasma CMPF concentrations cause impaired beta cell function and prevent GSIS in vivo, resulting in glucose intolerance. Chronically elevated CMPF levels may also induce insulin resistance. […]

Where [1] appears, read: after seven days of IP injection.
Setting [2] is: after three days of IP injection.

With `CCCc1oc(CCC(=O)O)c(C(=O)O)c1C` [CMPF, 3-carboxy-4-methyl-5-propyl-2-furanpropanoic acid], for the setting “3-day course of IP injections”, the body weight entry is “no difference”, the random-fed blood glucose result is reported as “no difference” and the random-fed plasma insulin result is given as “no difference”. Also, for the setting “7-day course of IP injections”, the body weight result was “no difference” and the random-fed blood glucose entry is recorded as “no difference”. For the same compound, under setting [1], the fasting blood glucose result is “significantly higher” and the fasting plasma insulin result is “significantly higher”. Also, under setting [2], the fasting blood glucose entry is reported as “significantly higher” and the fasting plasma insulin result is listed as “significantly lower”. For the setting “after 3 days of IP injection”, the “glucose tolerance (OGTT)” value is “impaired glucose tolerance” and the “insulin secretion during OGTT” value is on record as “significantly impaired insulin secretion”. In addition, for the setting “after 7 days of IP injection”, the “glucose tolerance (OGTT)” value is reported as “significantly impaired glucose tolerance” and the “insulin secretion during OGTT” value is on record as “significantly impaired insulin secretion”. In addition, the random-fed plasma insulin result (days 4-7 of injections) is given as “significantly elevated”. Further, the fed-state glucagon entry (seven-day treatment) is on record as “hyperglucagonemia”. Further, the “insulin sensitivity by insulin-tolerance testing (ipITT)” value (seven-day treatment, vs vehicle) was “no significant difference”.
